Experimental data: patent US8802723B2, “Metabolic syndrome-improving agent and medicine, supplement, functional food and food additive containing the same” (ARKRAY, Inc., priority 2005, dated 2014)

Experiments:
adiponectin mRNA = adiponectin mRNA expression in differentiated 3T3-L1 adipocytes (Light Cycler); type: cell-based; settings: 3T3-L1, 7 days after differentiation induction, non-treatment control = 100, average ± standard error
Experimental: Differentiation Induction Medium (0.25 μM DEX, 0.5 mM MIX, 10 μg/mL Insulin/10% FBS/DMEM)
55 mL of FBS (fetal bovine serum (manufactured by GIBCO)) was added to 500 mL of DMEM (manufactured by SIGMA) so as to prepare 10% FBS/DMEM. To this 10% FBS/DMEM, 138.75 μL of 1 mM DEX (dexamethasone)/DMSO (manufactured by Nacalai Tesque, Inc.) and 555 μL of 10 mg/mL insulin/PBS (manufactured by SIGMA) were added. Incidentally, the insulin/PBS was obtained by adding 1N HCl to PBS in advance so as to make the solution acidic enough to allow insulin dissolution and then dissolving insulin. […]
Next, culture preadipocytes 3T-L1 were thawed, inoculated in a 100 mm dish and cultured until 3T3-L 1 cells reached about 80% confluence. […] 7 days after the initiation of the differentiation induction, mRNA was extracted using Sepasol(R)—RNA I super (manufactured by Nacalai Tesque, Inc.), and the mRNA expression amounts of 36B4, aP2 and adiponectin, which were indicators of an early period of adipocyte differentiation, were measured using Light Cycler™. Also, the medium 7 days after the differentiation induction was taken in an amount of 1 mL from each well, and the amount of adiponectin in the medium supernatant was measured using a mouse/rat adiponectin ELISA kit (trade name) (manufactured by Otsuka Pharmaceutical Co., Ltd.). […]

HepG2 cells = assay: counting of the number of living cells (CellTiter 96 Aqueous One Solution); type: cell-based, human; settings: HepG2, 30 hours, control (DMSO) = 100
Experimental: HepG2 was cultured to 80% to 90% confluence in a 100 mm/Collagen-Coated Dish (trade name, manufactured by Iwaki Glass Works, Co.). The medium was removed from the above-noted dish with a pipette and then HepG2 was washed with 2 mL of 1×PBS. Then, 2 mL of trypsin-EDTA was added, the above-noted dish was rotated slowly so that the trypsin-EDTA spread over the entire cells, this trypsin-EDTA was removed with a pipette, and the dish was allowed to stand still for 15 minutes in a CO2 incubator (37° C., 5%). To this dish, 12 mL of a growth medium was added, followed by mixing by pipetting, and 1 mL of this mixture solution was dispensed in each well of Collagen-Coated Microplates 12Well/Flat Bottom (trade name, manufactured by Iwaki Glass Works, Co.). After the cells were checked using a microscope, the wells were cultured in a CO2 incubator (37° C., 5%) for one to two days. After checking that 80% to 90% confluence was achieved using the microscope, a medium replacement was carried out by removing the medium and adding 800 μL of a medium containing aurapten. […] Using this collected medium, the number of living cells were counted, and the Western blotting and the ELISA measurement were carried out similarly to the above. From the result of the ELISA, the ratio of the VLDL secretion amount between the measurement group and the non-treated control group (measurement group/control group) was calculated for each sample.
The measurement was made using CellTiter 96 Aqueous One Solution Cell Proliferation Assay (trade name, manufactured by Promega Corporation). […] 100 μL of this mixture solution was dispensed to each of three wells of ELISA PLATE 96 well (trade name, manufactured by Iwaki Glass Works, Co.), and the absorbance at 490 nm was measured. The measurement was made using wallac ARVOsx (trade name, PerkinElmer Life Sciences, PerkinElmer, Inc.), and the mode of measurement was Absorbance (490 nm, 1.0 S). The ratio of the number of living cells between the measurement group and the non-treated control group (measurement group/control group) was calculated for each sample.

Structure (SMILES): CC(C)=CCC/C(C)=C/COc1ccc2ccc(=O)oc2c1 [Aurapten, aurapten]
- Adiponectin mRNA expression amount (ratio to 36B4) (adiponectin mRNA; aurapten 1 μM): 144.5 ± 26.7
- Adiponectin mRNA expression amount (ratio to 36B4) (adiponectin mRNA; aurapten 5 μM): 161.4 ± 40.2
- Number of living cells (%) (HepG2 cells; aurapten 10 μM): 100.3%
- Number of living cells (%) (HepG2 cells; aurapten 20 μM): 99.9%
- Number of living cells (%) (HepG2 cells; aurapten 50 μM): 98.7%
